The values that follow come from patent publication US4946842A, “Novel guanidino pyridazinones as cardiac stimulants” (Smith Kline & French Laboratories Limited, priority 1985, dated 1990).

Each structure is given as a SMILES string.

Test [1] relates to left ventricular dp/dt max. Briefly: Cardiac stimulant activity in vivo (anaesthetised cats): left ventricular dp/dt max. More on the design: species or system cat. As to conditions: Felis catus, iv, read-out: ED50 (dose to increase left ventricular dp/dt max by 50%), i.v., pretreated with ganglion blocker and propranolol.
From the text: Cardiac Stimulant Activity--In vivo (Anaesthetised Cats)
# Relative duration was estimated in the anaesthetised cats following the
The next test has as its system PDE (Peak III). Briefly: Inhibition of PDE (Peak III). To be noted: read-out: IC50 (PDE Peak III); 1 μM cyclic AMP.
Another test has as its system ventricular strips. Briefly: Cardiac stimulant activity in vitro: force of contraction of electrically stimulated ventricular strips. Type of test: cell-based. To be noted: Cavia porcellus, read-out: EC50 (50% increase in the force of contraction of the ventricular strips); guinea pig ventricular strips, 37° C., 1.0 Hz, cumulative concentration response. As for the experimental part: The compounds of formula (I) and their pharmaceutically acceptable salts are tested for cardiac stimulant activity following a procedure based on that of S. C. Verma and J. H. McNeill (J.Pharm & Exp. Therapeutics, 200, 352-362 (1977)). Guinea pigs (500-700 g) of either sex are sacrificed and the hearts are quickly removed and transferred to a dissecting dish containing oxygenated bathing fluid. While in the bathing medium, the right ventricle is cut into two strips. The strips are each suspended in a 50 ml bath containing Krebs Henseleit solution at 37° C., and the bath is bubbled with 95% oxygen and 5% carbon dioxide. The ventricular strips are electrically stimulated at a frequency of 1.0 Hz, at double the threshold voltage. A resting tension of 1.0 g is applied to the strips and the tension is kept constant by readjustment during an equilibration period of 60 minutes. The bathing fluid is frequently changed during this period. When a steady base line is obtained, a compound under test is added to the bathing fluid and a cumulative concentration response curve is plotted. The compounds for use in the present invention which were tested gave a 50% increase in the force of contraction of the ventricular strips at concentrations in the bathing fluid of less than 10^-4 molar, thus showing that they have activity as positive inotropic agents.

The subject of another test is PDE (Peak I). The test is described as follows: Substrate kinetics of PDE (Peak I). To be noted: for Relative Vmax: PDE (Peak I), eluted at 0.15 M Na acetate. Type of test: biochemical, cat.
For the next test, the system named is PDE (Peak II). As to conditions: in words.

Method for PDE (Peak II): (§1) The enzyme was assayed by incubation at 37° for 4-30 min in 50 mM Tris, 5 mM MgCl2, pH 7.5 with [3-H] cyclic nucleotide (4×10^5 disintegrations min^-1) and [14-C] nucleotide 5' monophosphate (3×10^3 disintegrations min^-1). The assay was stopped by boiling, and the [3-H] […] The reaction mixture was diluted with 0.5 ml 100 mM HEPES (N-2-Hydroxyethylpiperazine-N'-2-ethanesulfonic acid), 100 mM NaCl, pH 8.5, and applied to the column. […] The recovery of product as judged by [14-C] recovery was approximately 80%. All assays were linear with time of incubation and concentration of enzyme over the range used in these experiments.
Method for PDE (Peak III): as §1

`CNC(=NS(=O)(=O)c1ccccc1)Nc1ccc(C2=NNC(=O)CC2C)cc1` (stereo not shown) [Example 3, 6-[4-(N^ 3-methyl-N^2-phenylsulphonylguanidino)phenyl]-5-methyl-4,5-dihydro-3(2H)-pyridazinone]: the ED50 in test [1] stood at 0.1 µmol/kg. In addition, the IC50 in the test with PDE (Peak III) is 0.23 µM.

On to `C=CCNC(=NC#N)Nc1ccc(C2=NNC(=O)CC2C)cc1` (stereo not shown) [Example 7, 6-[4-(N^3 -Allyl-N^2-cyanoguanidino)phenyl]-5-methyl-4,5-dihydro-3(2H)-pyridazinone], for which, in the test with ventricular strips, the EC50 was 10 µM. Moreover, the ED50 in test [1] worked out at 0.3 µmol/kg.

On to `CC(=O)N=C(N)Nc1ccc(C2=NNC(=O)CC2C)cc1` (stereo not shown) [Example 1, 6-[4-(N^2-acetylguanidino)phenyl]-5-methyl-4,5-dihydro-3(2H)-pyridazinone], for which, in the test on ventricular strips, the EC50 was 16 µM. In addition, the ED50 in test [1] turned out to be 0.5 µmol/kg. In addition, the IC50 in the test on PDE (Peak III) turned out to be 2.23 µM.

Regarding `CC1CC(=O)NN=C1c1ccc(NC(=NC#N)NCc2ccc(O)cc2)cc1` (stereo not shown) [Example 9, 6-[4-(N^3-(4-Hydroxybenzyl)-N^2-cyanoguanidino)phenyl]-5-methyl-4,5-dihydro-3(2H)-pyridazinone], the ED50 in test [1] was found to be 0.4 µmol/kg. Moreover, in the test on PDE (Peak III), the IC50 is 0.08 µM.

Consider `Nc1nc2c(ncn2[C@@H]2O[C@@H]3COP(=O)(O)O[C@H]3[C@H]2O)c(=O)[nH]1` [cyclic GMP], for which the “Relative Vmax” value is reported as 7.2 in the test on PDE (Peak I) (50 μg/ml calmodulin added) and 1.1 with PDE (Peak I) (without calmodulin). Moreover, the “affinity of PDE (Peak I)” value in the test with PDE (Peak I) (in words) was “high affinity”. Besides, in the test with PDE (Peak II), the “affinity of PDE (Peak II)” value is “relatively low affinities”.

`CNC(=NS(C)(=O)=O)Nc1ccc(C2=NNC(=O)CC2C)cc1` (stereo not shown) [Example 2, 6-[4-(N^3-methyl-N^2-methylsulphonylguanidino)phenyl]-5-methyl-4,5-dihydro-3(2H)-pyridazinone]: the ED50 in test [1] is 0.2 µmol/kg. The IC50 in the test with PDE (Peak III) came to 2.48 µM.

Consider `CC1CC(=O)NN=C1c1ccc(NC(=NC#N)NCc2ccccn2)cc1` (stereo not shown) [Example 12, 6-[4-(N^3-(2-Pyridylmethyl)-N^2-cyanoguanidino)phenyl]-5-methyl-4,5-dihydro-3(2H)-pyridazinone], for which the EC50 with ventricular strips amounted to 12 µM.

For the compound `COCCNC(=NC#N)Nc1ccc(C2=NNC(=O)CC2C)cc1` (stereo not shown) [Example 4, 6-[4-(N^3-(2-Methoxyethyl)-N^2-cyanoguanidino)phenyl]-5-methyl-4,5-dihydro-3(2H)-pyridazinone], in the test on ventricular strips, the EC50 amounted to 2.8 µM. Further, the ED50 in test [1] stood at 0.2 µmol/kg.

Take `C#CCNC(=NC#N)Nc1ccc(C2=NNC(=O)CC2C)cc1` (stereo not shown) [Example 8, 6-[4-(N^3 -Propargyl-N^2-cyanoguanidino)phenyl]-5-methyl-4,5-dihydro-3(2H)-pyridazinone]: the EC50 in the test on ventricular strips was determined as 18 µM. Also, in test [1], the ED50 was 0.4 µmol/kg.

`CC1CC(=O)NN=C1c1ccc(NC(=NC#N)NCc2ccccc2)cc1` (stereo not shown) [Example 10, 6-[4-(N^3 -Benzyl-N^2-cyanoguanidino)phenyl]-5-methyl-4,5-dihydro-3(2H)-pyridazinone]: in the test on ventricular strips, the EC50 amounted to 0.8 µM. Further, the ED50 in test [1] was determined as 0.1 µmol/kg.

For `COc1ccc(CNC(=NC#N)Nc2ccc(C3=NNC(=O)CC3C)cc2)cc1` (stereo not shown) [Example 11, 6-[4-(N^3-(4-Methoxybenzyl)-N^2-cyanoguanidino)phenyl]-5-methyl-4,5-dihydro-3(2H)-pyridazinone], in test [1], the ED50 was determined as 0.5 µmol/kg.

As for `CC1CC(=O)NN=C1c1ccc(NC(=NC#N)NCCc2ccccc2)cc1` (stereo not shown) [Example 13, 6-[4-(N^3 -Phenethyl-N^2-cyanoguanidino)phenyl]-5-methyl-4,5-dihydro-3(2H)-pyridazinone], the EC50 in the test on ventricular strips stood at 12.5 µM.

As to `CC1CC(=O)NN=C1c1ccc(NC(=NC#N)NCCO)cc1` (stereo not shown) [Example 5, 6-[4-(N^3-(2-Hydroxyethyl)-N^2-cyanoguanidino)phenyl]-5-methyl-4,5-dihydro-3(2H)-pyridazinone], the EC50 in the test with ventricular strips came out at 8 µM. Also, the ED50 in test [1] was determined as 0.7 µmol/kg.

On to `CC1CC(=O)NN=C1c1ccc(NC(=NC#N)NC2CC2)cc1` (stereo not shown) [Example 6], for which the EC50 with ventricular strips came to 10 µM. Besides, the ED50 in test [1] amounted to 0.4 µmol/kg.

The term IC50 denotes the midpoint of a concentration-inhibition curve.
